Experimental data taken from article PMC12086749, “Design, synthesis, and evaluation of peptide‐imidazo[1,2‐a]pyrazine bioconjugates as potential bivalent inhibitors of the VirB11 ATPase HP0525” (Journal of Peptide Science, 2021).

Molecular target: VirB11 ATPase HP0525 (Helicobacter pylori, UniProt Q7BK04)
Test: in vitro ATPase colorimetric assay of HP0525
Format: biochemical
Details: for inhibition of HP0525 (in words): qualitative statement
Experimental: The HP0525 protein was produced in the E. coli strain BL21 Star (DE3) (Invitrogen) as described previously.[39] The protein concentration was estimated spectroscopically using a NanoDrop (Thermo Scientific) and a calculated extinction coefficient at 280 nm, based on the amino acid composition. The ATPase activity of HP0525 was measured, with and without a specific amount of compound present, using an in vitro ATPase colorimetric assay kit (Innova Biosciences). The assay was performed in 96‐well ELISA microplates (Greiner Bio‐One), using a multipipette/robot.
A volume of 49 μl of a substrate/buffer solution (200 mM tris(hydroxymethyl)aminomethane [TRIS], pH 7.5; 5 mM MgCl2; 250 μM ATP; and 10% DMSO) was added to each assigned well, followed by the addition of 1 μl of compound (at 0.5; 5 or 50 mM to achieve the final concentrations of 5; 50 and 500 μM in the reaction, respectively) in DMSO (or 1 μl DMSO to controls). The solutions were mixed carefully by pipetting. The reaction was started by the addition of 50 μl of 0.106 μM HP0525 to each well (except the negative control, see text below), and the reaction plate was directly transferred to 37°C for 30 min of incubation. The reaction was stopped by the addition of the gold mix according to the standard protocol of the kit. The absorbance at 620 nm was measured after 30 min at RT. For each compound, the percentage of absorbance relative to non‐inhibited HP0525 was calculated, after subtracting the absorbance value of the negative control. In the negative control, the protein was added after the gold mix, as described in the standard protocol of the kit, which when used as a blank corrects for all free Pi not produced by the enzyme during the 30 min incubation at 37°C. A known inhibitor of HP0525 (CHIR02)[26] was used as a control inhibitor. All measurements were made in duplicate.
Each compound was screened on three separate plates, and each plate was read twice, and a mean was calculated for each concentration. The data were normalized by subtracting the negative control (0% active) and relating it to the positive control (100% active). The software GraphPad Prism 5 was used to generate two dose–response curves (Log [inhibitor] vs. normalized response [standard and variable slope]), and the IC50 values were calculated from each.

Chain of VirB11 ATPase HP0525 (Q7BK04 entry or part of it): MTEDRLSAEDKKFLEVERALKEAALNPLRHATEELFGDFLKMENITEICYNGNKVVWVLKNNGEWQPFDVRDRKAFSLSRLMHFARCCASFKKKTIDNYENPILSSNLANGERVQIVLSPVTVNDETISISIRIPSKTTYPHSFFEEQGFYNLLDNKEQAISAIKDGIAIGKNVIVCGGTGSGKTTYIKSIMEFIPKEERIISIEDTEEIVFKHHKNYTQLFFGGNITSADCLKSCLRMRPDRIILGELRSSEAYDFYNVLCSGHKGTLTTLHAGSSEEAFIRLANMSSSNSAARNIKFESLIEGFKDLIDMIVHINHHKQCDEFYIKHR

`C#CCOCCOC(=O)Nc1ccc(S(=O)(=O)Nc2nccn3cc(-c4ccc5ccccc5c4)nc23)cc1` [Compound 16] was tested, and the IC50 was 61 µM and the “inhibition of HP0525 (in words)” value was “improved inhibition”.

For `NCCOCCOC(=O)Nc1ccc(S(=O)(=O)Nc2nccn3cc(-c4ccc5ccccc5c4)nc23)cc1` [Compound 27], the IC50 was 137 µM and the “inhibition of HP0525 (in words)” value was “poor inhibition”.

With `C=CCOCCOC(=O)Nc1ccc(S(=O)(=O)Nc2nccn3cc(-c4ccc5ccccc5c4)nc23)cc1` [Compound 15] the IC50 was 46 µM and the “inhibition of HP0525 (in words)” value was “improved inhibition”.

With `O=C(CCN1C(=O)C=CC1=O)NCCOCCOC(=O)Nc1ccc(S(=O)(=O)Nc2nccn3cc(-c4ccc5ccccc5c4)nc23)cc1` [Compound 17] the IC50 was 18 µM and the “inhibition of HP0525 (in words)” value was “improved inhibition”.
